In paper PMC8165439, “Chymase Dependent Pathway of Angiotensin II Generation and Rapeseed Derived Peptides for Antihypertensive Treatment of Spontaneously Hypertensive Rats” (Frontiers in Pharmacology, 2021):
“Also recorded” adds a separate entry of the source.

How the values were obtained:
Assay type in all cases: in vivo, rat
[1] = tested on: spontaneously hypertensive rats (SHR); assay: Chronic iv treatment, systolic blood pressure by telemetry
Source text: Implantation of the telemetry transmitters for BP measurement: Seven days before the start of the chronic experiment all rats were implanted with telemetry probes for blood pressure monitoring (Data Science International, St. Paul, MN, United States). The transmitters (TA11PA-C10 dedicated for young animals or TA11PA-C40 for adult rats, Data Science International, St. Paul, MN, United States), were implanted under aseptic conditions, under sodium pentobarbital anesthesia (Sodium Pentobarbital, dose: 50 mg/kg ip, Biowet, Pulawy, Poland). The transmitter’s cannula was implanted into the aorta and transmitter’s body was placed inside the peritoneal cavity and fixed to the abdominal muscle wall. Metacam (0.4 mg/kg BW, Boehringer, Ingelheim, Germany) and Baytril (10 mg/kg BW, Bayer, Leverkusen, Germany) were used as post-operative analgesia and to prevent infection, respectively.
Implantation of cannulas for intravenous administration of selected substances: Four days before the start of the chronic experiment, the femoral vein was cannulated for chronic administration of the substances (Micro-Renathane MRE033, BIOSEB-In Vivo Research Instruments, United States/Canada), and the femoral artery was cannulated for blood sampling (Micro-Renathane Tubing MRE-025 and MRE033, BIOSEB-In Vivo Research Instruments, United States/Canada, respectively in young and adult rats). Both cannulas were filled with 4% Citra-Lock solution (Dirinco B.V, Ketelmeer 1, 5347 JX Oss, Netherlands) to prevent blood clotting and inflammation. After the surgery the post-operative treatment was applied as that for telemetric probe implantation.
Systolic and diastolic blood pressure (SBP and DBP, respectively) and heart rate (HR) were measured in conscious unrestrained rats by telemetry technique, once a week for 24 h. […] The diuresis, weight of feces, food and water intake were measured; urine and blood samples were collected on day 0, 7th and 14th, and were centrifuged at 1200 g (blood for 15 min and urine for 5 min), then the samples were stored at –80°C until analysis. […]

[2] = tested on: spontaneously hypertensive rats (SHR); assay: Glomerulosclerosis index (GSI) after chronic treatment; settings: after 14 days daily iv CH 2, RIY 7.5, VWIS 12.5 mg/kg/day, mean ± SEM, n = 5
Protocol: (§1) After the chronic experiment rats were anesthetized with sodium thiopental (100 mg/kg, ip, Sandoz GmbH, Kundl, Austria) and the heart, kidney and tibia were harvested for morphologic analysis. Additionally, left ventricular hypertrophy was assessed: the hearts were immediately harvested, dried with filter paper, and weighed. Then the left ventricle (LV) was carefully excised and weighed again. Left ventricular hypertrophy was assessed based on the ratio of LV mass to tibia length (LV/tibia).
The kidneys were fixed in 4% buffered formalin, embedded in paraffin and stained with hematoxylin/eosin for morphology evaluation. Glomerulosclerosis/hyalinosis index (GSI) was defined as segmental solidification of the glomerular capillary tuft, segmental collapse, obliteration of capillary lumen and accumulation of hyaline. Fifty glomeruli per section were randomly selected and evaluated using semi-quantitative scoring method as described in detail previously ([Maric et al., 2004]; [Gawrys et al., 2018]). Blind group allocation of the investigators was used.

[3] = tested on: spontaneously hypertensive rats (SHR); assay: Left ventricular hypertrophy (LV/tibia) after chronic treatment; settings: after 14 days daily iv CH 2, RIY 7.5, VWIS 12.5 mg/kg/day, mean ± SEM, n = 5
Protocol: as §1

`CC(C)C[C@H](NC(=O)[C@@H](NC(=O)N[C@@H](Cc1ccccc1)C(=O)O)[C@@H]1CCN=C(N)N1)C(=O)N[C@H](C=O)Cc1ccccc1` [CH, chymostatin] was tested, and the “effect on systolic blood pressure (SBP) in adult SHR” value ([1]; adult SHR (16 weeks old), daily iv for 14 days, CH 2, RIY 7.5, VWIS 12.5 mg/kg/day) was “no sustained decrease in arterial blood pressure; also recorded: significant increase in SBP”, the “period of transient BP reduction post-infusion” value ([1]; adult SHR, chronic intravenous infusion of chymostatin 2 mg/kg/day) was no more than 7 h and the “effect on blood pressure (SBP) in young animals” value ([1]; young SHR (6 weeks old), daily iv for 14 days, CH 2, RIY 7.5, VWIS 12.5 mg/kg/day) was “Neither of the inhibitors applied (chymostatin and the both rapeseed-derived peptides) affected blood pressure”. For the same compound, the “glomerulosclerosis index (GSI)” value ([2]; adult SHR) was 0.50 ± 0.07, the “glomerulosclerosis index (GSI)” value ([2]; young SHR) was 0.51 ± 0.07 and the “left ventricular hypertrophy (LV/tibia)” value ([3]; adult SHR) was 20.7 ± 2.6 mg/mm. The “left ventricular hypertrophy (LV/tibia)” value ([3]; young SHR) was 16.7 ± 0.9 mg/mm.
